Among the test systems are MDA-N; KM20L2 colon; RXF-631 renal; LXFL 529 NSCLC; SNB-78 CNS; HOP-18 NSCLC; DMS 273 small cell lung; XF 498 CNS; M19-MEL melanoma.
Holding throughout (assay): NCI anticancer screen, dose series, 48 h

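Dose response: 5 concentrations. Exposure: 48 h. Format: 96-well plates. Endpoint: linear interpolation; highest concentration if not reached. GI50 = concentration required for 50% inhibition of growth. TGI is the concentration that stops growth completely.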

In the assay with MDA-N, `C=C(C)C1CCC2=CC(CC3(C)OC3C3=CC(C(=O)OC)=C(C1)O3)OC2=O` (configuration not stated) showed a TGI above 100 µM.

For the compound `Nn1c(-c2cccc(Cl)c2)nc2ccccc2c1=O`, the TGI with KM20L2 colon, with RXF-631 renal, in the assay with LXFL 529 NSCLC, in the assay on SNB-78 CNS, with HOP-18 NSCLC and with DMS 273 small cell lung was above 100 µM in each case. In the assay with XF 498 CNS, this compound returned a TGI above 100 µM.

The compound `Oc1ccc(Cl)cc1Sc1cc(Cl)ccc1O` came in with a TGI in the assay with MDA-N of 26.1 µM.

As for `Cc1ccc(C2[C@H]3C(=O)N(c4ccc(Cc5ccc(N6C(=O)[C@@H]7ON(c8ccccc8)C(c8ccc(C)cc8)[C@@H]7C6=O)cc5)cc4)C(=O)[C@H]3ON2c2ccccc2)cc1` (some centres not stated), the TGI in the assay on KM20L2 colon, with M19-MEL melanoma, with LXFL 529 NSCLC, in the assay with HOP-18 NSCLC, with DMS 273 small cell lung and with XF 498 CNS was above 100 µM throughout.

`NC(Cc1cccnn1)C(=O)O` (configuration not stated): the TGI in the assay on MDA-N was above 100 µM.

For `C[C@]12Cc3conc3C(O)=C1CC[C@@H]1C2CC[C@@]2(C)C1CC[C@]2(C)O` (some centres not stated), the TGI is 42.7 µM with KM20L2 colon; above 100 µM with RXF-631 renal; 41.9 µM with M19-MEL melanoma; 35.7 µM in the assay with LXFL 529 NSCLC; 63.4 µM in the assay on SNB-78 CNS; 26.3 µM in the assay on DMS 273 small cell lung. In the assay with XF 498 CNS, this compound gave a TGI of 47.2 µM.

Take `C[C@]12CC(C=O)C(=O)C(O)=C1CC[C@@H]1C2CC[C@@]2(C)C1CC[C@]2(C)O` (some centres not stated): the TGI was 52.9 µM in the assay with KM20L2 colon; 72.7 µM with RXF-631 renal; 44.8 µM with M19-MEL melanoma; 31.6 µM with LXFL 529 NSCLC; 35.8 µM in the assay with SNB-78 CNS; 46.8 µM in the assay on DMS 273 small cell lung. In addition, in the assay with XF 498 CNS, the TGI came to 33.4 µM.

As to `NC(=O)C(=O)C1C(=O)N(c2ccccc2)N=C1N` (configuration not stated), the TGI with KM20L2 colon, in the assay on LXFL 529 NSCLC, in the assay with SNB-78 CNS, in the assay with DMS 273 small cell lung and in the assay with XF 498 CNS was above 100 µM throughout.

Consider `C=C1C(=O)O[C@@H]2CC(CO)=C([C@@H](C)CCCO)[C@@H](OC(=O)/C(C)=C\C)[C@H]12`, for which the TGI with MDA-N was above 67.3 µM.

Take `Cc1cc(Cl)ccc1N=C1NC(=O)C(CC(=O)Nc2cccc(C)c2C)S1` (configuration not stated): the TGI in the assay on KM20L2 colon is 87.2 µM; in the assay with RXF-631 renal it was 84.3 µM; in the assay with M19-MEL melanoma, above 100 µM; with SNB-78 CNS, 79.7 µM; in the assay with DMS 273 small cell lung it was 81 µM; with XF 498 CNS it was 39 µM.

`COc1cc([C@@H]2OC(=O)C3C2C(=O)O[C@H]3c2ccc(O)c(OC)c2)ccc1O` (some centres not stated): the TGI in the assay with KM20L2 colon, in the assay on RXF-631 renal, in the assay with M19-MEL melanoma, in the assay on LXFL 529 NSCLC, in the assay with SNB-78 CNS and with HOP-18 NSCLC was above 100 µM throughout. For the same compound, the TGI in the assay on DMS 273 small cell lung was above 100 µM.

Turning to `O=C(NCCCl)Nc1ccccc1`, the TGI with MDA-N is above 100 µM.

Turning to `Cc1cc2c3c([n+](C)c4ccc(F)cc4c3c1)-c1cc(F)ccc1N2C`, in the assay with MDA-N, the GI50 is 14.3 µM and the TGI was above 100 µM.

For the compound `CC(C)N1C(C)[C@@H](c2ccccc2)O[P@@]1(=O)CC1=CCCCC1` (some centres not stated), the TGI in the assay on KM20L2 colon, in the assay on M19-MEL melanoma, with LXFL 529 NSCLC, in the assay with HOP-18 NSCLC and in the assay with XF 498 CNS was above 100 µM in each case.

For the compound `O=[N+]([O-])c1cccc(S(=O)(=O)N/N=C/c2cc(I)cc([N+](=O)[O-])c2O)c1`, the TGI in the assay with KM20L2 colon was above 100 µM; in the assay with M19-MEL melanoma, above 100 µM; in the assay with LXFL 529 NSCLC, 48.3 µM; with SNB-78 CNS, 66.4 µM; with HOP-18 NSCLC, 78.6 µM; in the assay on DMS 273 small cell lung, 52.9 µM.

Regarding `CCCCCCCCC(C)CCCCCCCCC(=O)OCC(COP(=O)([O-])OCC[N+](C)(C)C)OC(=O)CCCCCCCCC(C)CCCCCCCC` (configuration not stated), the TGI with KM20L2 colon, in the assay with RXF-631 renal, with M19-MEL melanoma, in the assay on LXFL 529 NSCLC, in the assay with SNB-78 CNS and in the assay on HOP-18 NSCLC was above 100 µM throughout. For the same compound, in the assay with DMS 273 small cell lung, the TGI is above 100 µM.

Consider `N#CC(C(=N/O)/C(=N\O)C(C#N)c1ccccc1)c1ccccc1` (configuration not stated), for which the TGI in the assay on KM20L2 colon, with RXF-631 renal, in the assay on M19-MEL melanoma, in the assay with LXFL 529 NSCLC, in the assay on SNB-78 CNS and with HOP-18 NSCLC was above 100 µM in each case. The TGI with XF 498 CNS was above 100 µM.

In the case of `Cn1c2c(c3ccccc3c1=O)C(=O)c1ccccc1-2`, in the assay with MDA-N, the TGI was above 100 µM.

`Cc1c(NC(=O)Nc2c(Cl)cccc2Cl)c(=O)n(-c2ccccc2)n1C` registered a TGI in the assay on MDA-N above 100 µM.

With `O=C(Nc1ccc([N+](=O)[O-])cc1[N+](=O)[O-])C(=O)C(C(=O)c1ccc(Cl)c(Cl)c1)C1OC(=O)c2ccccc21` (configuration not stated), the TGI in the assay with KM20L2 colon was 89.7 µM; in the assay on M19-MEL melanoma it was 79.4 µM; in the assay on LXFL 529 NSCLC, 47.3 µM; with SNB-78 CNS it was 93.3 µM; in the assay on DMS 273 small cell lung, above 100 µM.

For `CC(=O)[CH-]C(=O)c1ccccc1.CC(=O)[CH-]C(=O)c1ccccc1.CC[C@H](/C=C/C(C)[C@H]1CCC2[C@@H]3CC=C4C[C@@H]([O-])CC[C@]4(C)C3CC[C@@]21C)C(C)C.CC[C@H](/C=C/C(C)[C@H]1CCC2[C@@H]3CC=C4C[C@@H]([O-])CC[C@]4(C)C3CC[C@@]21C)C(C)C.Cl.[Ti+4]` (some centres not stated), the GI50 in the assay with KM20L2 colon, with M19-MEL melanoma, in the assay with LXFL 529 NSCLC, with HOP-18 NSCLC and with DMS 273 small cell lung was above 25 µM in each case. Moreover, the TGI in the assay on KM20L2 colon, in the assay with M19-MEL melanoma, in the assay with LXFL 529 NSCLC, in the assay on HOP-18 NSCLC and with DMS 273 small cell lung was above 25 µM each time.

Consider `CCOC(=O)C1=C(O)C(=O)c2ccoc2C1=O`, for which the TGI in the assay on KM20L2 colon, with M19-MEL melanoma, in the assay with SNB-78 CNS, in the assay with HOP-18 NSCLC, in the assay with DMS 273 small cell lung and in the assay with XF 498 CNS was above 100 µM throughout.

Consider `COc1ccc(/C=C\c2cc(OC)c(OC)c(OC)c2)cc1OC(=O)CC(N)C(=O)O` (configuration not stated), for which the TGI in the assay with KM20L2 colon was 21.2 µM; in the assay on M19-MEL melanoma, above 100 µM; in the assay on SNB-78 CNS, above 100 µM; with HOP-18 NSCLC it was above 100 µM; in the assay with DMS 273 small cell lung, 0.00462 µM; in the assay with XF 498 CNS, 0.00792 µM. This compound also had a TGI in the assay on MDA-N of 0.000474 µM. For the same compound, the GI50 in the assay on HOP-18 NSCLC is above 100 µM.

For the compound `O=C1NC2C3CC(OCc4ccccc4)(OCc4ccccc4)C2OC3O1` (configuration not stated), the TGI with M19-MEL melanoma, with HOP-18 NSCLC, in the assay with DMS 273 small cell lung and in the assay on XF 498 CNS was above 50 µM each time.

Regarding `O=C(COC(=O)c1cccc2c(=O)c3ccccc3[nH]c12)Nc1ccc(Cl)cc1`, the TGI in the assay on KM20L2 colon is above 100 µM; in the assay on M19-MEL melanoma, above 100 µM; in the assay with LXFL 529 NSCLC, above 100 µM; with SNB-78 CNS, above 100 µM; with HOP-18 NSCLC, above 100 µM; in the assay on XF 498 CNS it was 97.3 µM.

As to `C=CC(=O)Nc1ccccc1CC(c1c[nH]c2ccccc12)c1c[nH]c2ccccc12`, the TGI in the assay on RXF-631 renal is 32.3 µM; in the assay with M19-MEL melanoma, 30 µM; in the assay with LXFL 529 NSCLC it was 30.6 µM; with SNB-78 CNS it was 43.8 µM; in the assay with DMS 273 small cell lung, 32.1 µM; with XF 498 CNS it was 42.3 µM.

Regarding `CCN(CC)/[N+]([O-])=N/OCOC`, the TGI in the assay with MDA-N is above 100 µM.

On to `O=NN1CCN=C1c1ccc([N+](=O)[O-])cc1`, for which the TGI in the assay with KM20L2 colon, in the assay with M19-MEL melanoma, with LXFL 529 NSCLC, in the assay with SNB-78 CNS, with DMS 273 small cell lung and with XF 498 CNS was above 100 µM throughout.

For the compound `NCCCC(N=Cc1nc(-c2ccccc2)oc1O)C(=O)O` (configuration not stated), the TGI in the assay with KM20L2 colon, in the assay on M19-MEL melanoma, with LXFL 529 NSCLC, in the assay on SNB-78 CNS, in the assay with DMS 273 small cell lung and in the assay on XF 498 CNS was above 100 µM throughout.

On to `CN(C)CCNC(=O)c1cccc2c1Oc1cccc([N+](=O)[O-])c1O2`, for which the TGI in the assay on MDA-N was 31.6 µM.

In the case of `COc1ccc(NC(=O)c2oc3cc(O)ccc3c(=O)c2C)c([N+](=O)[O-])c1`, the TGI in the assay on KM20L2 colon, in the assay on M19-MEL melanoma, in the assay with LXFL 529 NSCLC, in the assay with SNB-78 CNS, in the assay with HOP-18 NSCLC and in the assay with DMS 273 small cell lung was above 100 µM throughout. The same compound returned a TGI with XF 498 CNS above 100 µM.

For the compound `CCCCCCCCCCCCCCCCCCOCC(C[N+]1(C)CCC(O)CC1)OCC` (configuration not stated), the TGI in the assay on RXF-631 renal worked out at 21.1 µM; in the assay with M19-MEL melanoma, 14.4 µM; in the assay on LXFL 529 NSCLC, 11 µM; in the assay with SNB-78 CNS, 14.7 µM; in the assay on DMS 273 small cell lung, 4.91 µM; in the assay on XF 498 CNS it was 29 µM.

For `CC1(C2COC(=O)C2)SCCCS1` (configuration not stated), the TGI in the assay on KM20L2 colon, in the assay with M19-MEL melanoma, in the assay with LXFL 529 NSCLC, in the assay on HOP-18 NSCLC, with DMS 273 small cell lung and with XF 498 CNS was above 100 µM in each case.

Values taken from PubChem BioAssay (NCI).
